For one assay, the target named is TLR7 (Mus musculus (Mouse), UniProt P58681). The experiment in a line: In vivo mouse TLR7 PD model (gardiquimod-induced plasma IL-6 and IFN-alpha). Particulars: plasma 90 min after gardiquimod, vs vehicle. On the procedure:
In Vivo Mouse TLR7 PD Model:
Adult male C5-7BL/6 mice were used for the experiments. Mice (7 to 10 per group) were randomized into different treatment groups based on body weight. Mice from the respective treatment groups were administered orally with vehicle or test compound. Thirty min after the oral administration of vehicle or test compound, mice were challenged with intraperitoneal injection of gardiquimod for TLR7 PD model. Ninety minutes after gardiquimod injection, mice were bled under isoflurane anaesthesia and plasma IL-6 and IFN-alpha levels were estimated by using commercially available ELISA kit (BD Biosciences, PBL Life Sciences). At the end of experiment, mean cytokine data was plotted and one way ANOVA with Dunnett's test was performed to calculate the significance of test compound treated group vs. vehicle control group. Percent inhibition of cytokine induction was calculated for test compound treated group vs vehicle control group.

In another assay the target is human TLR9 (Homo sapiens (Human), UniProt Q9NR96). The experiment in a line: TLR9 inhibition reporter assay (HEK-Blue cells, SEAP reporter, ODN2006 stimulation). The following applies: read-out: TLR9 IC50.
The next assay concerns the target human TLR7 (Homo sapiens (Human), UniProt Q9NYK1). The experiment in a line: TLR7 inhibition reporter assay (HEK-Blue cells, SEAP reporter, gardiquimod stimulation). Format: cell-based. On the technique in general: In a reporter assay the amount or activity of a reporter protein is the signal.
In another assay the target is human TLR8 (Homo sapiens (Human), UniProt Q9NR97). The experiment in a line: TLR8 inhibition reporter assay (HEK-Blue cells, SEAP reporter, R848 stimulation). The following applies: read-out: TLR8 IC50.
The mark [1] stands for this setting: oral dose 0.005 mg/kg 30 min before i.p. gardiquimod.
Setting [2] is: oral dose 0.01 mg/kg 30 min before i.p. gardiquimod.
Setting [3] is: oral dose 0.05 mg/kg 30 min before i.p. gardiquimod.
Where [4] appears, read: oral dose 0.25 mg/kg 30 min before i.p. gardiquimod.
[5] abbreviates: oral dose 0.5 mg/kg 30 min before i.p. gardiquimod.
The mark [6] stands for this setting: oral dose 0.0015 mg/kg 30 min before i.p. gardiquimod.
The mark [7] stands for this setting: oral dose 0.003 mg/kg 30 min before i.p. gardiquimod.
The mark [8] stands for this setting: oral dose 0.015 mg/kg 30 min before i.p. gardiquimod.
Where [9] appears, read: oral dose 0.075 mg/kg 30 min before i.p. gardiquimod.
Setting [10] is: oral dose 0.15 mg/kg 30 min before i.p. gardiquimod.
[11] abbreviates: oral dose 0.006 mg/kg 30 min before i.p. gardiquimod.
Setting [12] is: oral dose 0.03 mg/kg 30 min before i.p. gardiquimod.
Where [13] appears, read: oral dose 0.3 mg/kg 30 min before i.p. gardiquimod.

The record followed here is patent US11053244B1, “4-azaindole compounds” (BRISTOL-MYERS SQUIBB COMPANY, priority 2017, dated 2021).

Chain of TLR7 (P58681 27-1050): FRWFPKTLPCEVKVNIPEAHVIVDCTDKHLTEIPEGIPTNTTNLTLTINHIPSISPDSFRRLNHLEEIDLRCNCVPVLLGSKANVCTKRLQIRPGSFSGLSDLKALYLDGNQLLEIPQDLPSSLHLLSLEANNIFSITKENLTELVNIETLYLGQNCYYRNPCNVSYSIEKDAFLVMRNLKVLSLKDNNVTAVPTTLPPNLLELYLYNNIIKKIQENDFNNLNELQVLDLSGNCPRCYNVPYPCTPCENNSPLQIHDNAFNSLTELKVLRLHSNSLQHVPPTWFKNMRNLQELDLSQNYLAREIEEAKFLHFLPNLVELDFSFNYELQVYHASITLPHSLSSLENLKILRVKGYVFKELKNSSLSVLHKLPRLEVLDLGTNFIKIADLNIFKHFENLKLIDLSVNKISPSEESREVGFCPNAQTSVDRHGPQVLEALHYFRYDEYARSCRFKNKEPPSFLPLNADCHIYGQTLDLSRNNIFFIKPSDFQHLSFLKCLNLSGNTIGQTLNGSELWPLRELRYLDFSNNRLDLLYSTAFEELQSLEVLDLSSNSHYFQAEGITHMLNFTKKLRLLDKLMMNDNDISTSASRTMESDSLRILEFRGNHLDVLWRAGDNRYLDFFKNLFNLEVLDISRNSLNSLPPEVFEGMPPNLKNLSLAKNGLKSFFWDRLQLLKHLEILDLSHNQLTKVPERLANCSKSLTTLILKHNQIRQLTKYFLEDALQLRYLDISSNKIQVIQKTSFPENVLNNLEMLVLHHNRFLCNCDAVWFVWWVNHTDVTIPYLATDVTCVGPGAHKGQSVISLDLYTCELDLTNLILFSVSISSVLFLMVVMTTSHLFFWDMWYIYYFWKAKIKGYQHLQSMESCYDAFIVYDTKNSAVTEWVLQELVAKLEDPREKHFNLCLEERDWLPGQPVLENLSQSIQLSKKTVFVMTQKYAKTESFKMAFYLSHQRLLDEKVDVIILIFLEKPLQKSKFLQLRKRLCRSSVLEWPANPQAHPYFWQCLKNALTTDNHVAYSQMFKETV
Chain of human TLR9 (Q9NR96 26-1032): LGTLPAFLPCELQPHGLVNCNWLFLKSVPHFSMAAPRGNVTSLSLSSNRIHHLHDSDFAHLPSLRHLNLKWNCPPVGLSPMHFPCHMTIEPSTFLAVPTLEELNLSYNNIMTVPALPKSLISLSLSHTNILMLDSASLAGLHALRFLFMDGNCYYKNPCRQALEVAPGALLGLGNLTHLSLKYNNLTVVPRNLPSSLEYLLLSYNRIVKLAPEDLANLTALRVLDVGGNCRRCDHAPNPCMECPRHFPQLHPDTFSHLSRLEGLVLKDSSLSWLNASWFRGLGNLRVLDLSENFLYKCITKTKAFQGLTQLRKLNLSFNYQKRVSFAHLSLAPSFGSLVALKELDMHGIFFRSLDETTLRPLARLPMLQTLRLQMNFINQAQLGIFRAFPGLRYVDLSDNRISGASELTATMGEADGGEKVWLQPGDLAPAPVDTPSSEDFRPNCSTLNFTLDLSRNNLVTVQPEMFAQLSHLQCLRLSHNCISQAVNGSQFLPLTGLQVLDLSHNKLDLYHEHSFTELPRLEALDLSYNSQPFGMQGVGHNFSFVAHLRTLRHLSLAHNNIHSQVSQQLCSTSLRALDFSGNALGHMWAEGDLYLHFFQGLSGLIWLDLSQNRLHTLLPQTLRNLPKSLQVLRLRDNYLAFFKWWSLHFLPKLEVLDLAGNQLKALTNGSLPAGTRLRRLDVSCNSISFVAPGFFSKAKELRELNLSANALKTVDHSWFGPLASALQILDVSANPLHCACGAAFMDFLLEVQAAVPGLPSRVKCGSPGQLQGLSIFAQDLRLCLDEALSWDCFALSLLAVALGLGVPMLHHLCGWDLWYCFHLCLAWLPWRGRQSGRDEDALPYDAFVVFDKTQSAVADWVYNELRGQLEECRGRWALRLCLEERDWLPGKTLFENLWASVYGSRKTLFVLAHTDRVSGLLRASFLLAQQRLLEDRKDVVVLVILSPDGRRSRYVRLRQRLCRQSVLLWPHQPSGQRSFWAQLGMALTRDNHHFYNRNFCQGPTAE
Chain of human TLR7 (Q9NYK1 27-1049): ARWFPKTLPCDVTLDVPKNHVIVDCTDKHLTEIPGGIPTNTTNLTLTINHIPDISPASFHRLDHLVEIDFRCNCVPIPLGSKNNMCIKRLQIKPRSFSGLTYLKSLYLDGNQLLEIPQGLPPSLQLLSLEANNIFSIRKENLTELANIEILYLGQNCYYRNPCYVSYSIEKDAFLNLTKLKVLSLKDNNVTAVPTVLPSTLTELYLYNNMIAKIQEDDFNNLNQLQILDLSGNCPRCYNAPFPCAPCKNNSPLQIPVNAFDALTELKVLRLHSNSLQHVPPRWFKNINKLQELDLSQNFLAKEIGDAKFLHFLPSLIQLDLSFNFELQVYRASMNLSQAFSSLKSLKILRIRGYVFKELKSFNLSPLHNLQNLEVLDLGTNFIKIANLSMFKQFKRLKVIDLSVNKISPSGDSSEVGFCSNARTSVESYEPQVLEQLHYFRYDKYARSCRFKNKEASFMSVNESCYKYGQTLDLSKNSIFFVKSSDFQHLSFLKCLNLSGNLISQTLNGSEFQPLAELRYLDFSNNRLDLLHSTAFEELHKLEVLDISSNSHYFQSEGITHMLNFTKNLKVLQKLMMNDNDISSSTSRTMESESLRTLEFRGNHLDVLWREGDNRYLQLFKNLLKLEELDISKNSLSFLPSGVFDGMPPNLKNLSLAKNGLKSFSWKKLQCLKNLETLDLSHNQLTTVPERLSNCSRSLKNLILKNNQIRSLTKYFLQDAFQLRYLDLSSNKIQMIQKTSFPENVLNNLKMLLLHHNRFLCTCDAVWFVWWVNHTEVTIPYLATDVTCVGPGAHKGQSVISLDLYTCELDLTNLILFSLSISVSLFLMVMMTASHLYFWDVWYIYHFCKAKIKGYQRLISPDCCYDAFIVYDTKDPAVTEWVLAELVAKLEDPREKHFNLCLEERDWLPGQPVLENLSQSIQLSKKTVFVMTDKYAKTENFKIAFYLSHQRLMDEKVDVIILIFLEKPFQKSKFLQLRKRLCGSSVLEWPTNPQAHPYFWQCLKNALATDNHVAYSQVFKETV
Chain of human TLR8 (Q9NR97 27-1041): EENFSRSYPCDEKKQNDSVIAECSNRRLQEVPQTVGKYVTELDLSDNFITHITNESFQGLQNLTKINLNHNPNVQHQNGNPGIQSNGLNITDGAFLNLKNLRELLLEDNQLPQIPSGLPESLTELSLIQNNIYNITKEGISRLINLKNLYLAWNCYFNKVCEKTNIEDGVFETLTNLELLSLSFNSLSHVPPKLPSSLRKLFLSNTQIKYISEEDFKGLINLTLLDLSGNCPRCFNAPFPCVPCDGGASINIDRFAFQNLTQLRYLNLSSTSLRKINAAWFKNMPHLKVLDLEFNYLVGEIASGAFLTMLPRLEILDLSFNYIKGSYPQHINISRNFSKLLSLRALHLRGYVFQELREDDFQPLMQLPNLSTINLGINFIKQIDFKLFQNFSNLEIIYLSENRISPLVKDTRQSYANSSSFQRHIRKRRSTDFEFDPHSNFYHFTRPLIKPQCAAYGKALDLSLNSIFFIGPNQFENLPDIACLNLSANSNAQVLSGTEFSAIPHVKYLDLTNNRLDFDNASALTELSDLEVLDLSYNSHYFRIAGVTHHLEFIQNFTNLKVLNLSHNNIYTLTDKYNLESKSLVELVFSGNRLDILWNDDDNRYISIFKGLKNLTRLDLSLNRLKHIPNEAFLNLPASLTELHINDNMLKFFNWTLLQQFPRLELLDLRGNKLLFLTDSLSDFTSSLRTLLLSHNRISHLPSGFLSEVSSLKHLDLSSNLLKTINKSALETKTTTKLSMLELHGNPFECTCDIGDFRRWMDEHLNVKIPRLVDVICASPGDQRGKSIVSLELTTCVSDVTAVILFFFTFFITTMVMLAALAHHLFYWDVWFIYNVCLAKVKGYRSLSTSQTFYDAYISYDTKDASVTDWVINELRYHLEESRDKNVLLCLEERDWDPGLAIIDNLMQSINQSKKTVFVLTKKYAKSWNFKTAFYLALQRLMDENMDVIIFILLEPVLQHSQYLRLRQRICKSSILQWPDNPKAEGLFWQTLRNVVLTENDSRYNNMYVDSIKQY
Method for human TLR7: (§1) HEK-Blue™-cells (Invivogen) overexpressing human TLR7, TLR8 or TLR9 receptors were used for screening inhibitors of these receptors using an inducible SEAP (secreted embryonic alkaline phosphatase) reporter gene under the control of the IFN-β minimal promoter fused to five NF-κB and AP-1-binding sites. Briefly, cells are seeded into Greiner 384 well plates (15000 cells per well for TLR7, 20,000 for TLR8 and 25,000 for TLR9) and then treated with test compounds in DMSO to yield a final dose response concentration range of 0.05 nM-50 μM. After a 30 minute compound pre-treatment at room temperature, the cells are then stimulated with a TLR7 ligand (gardiquimod at a final concentration of 7.5 μM), TLR8 ligand (R848 at a final concentration of 15.9 μM) or TLR9 ligand (ODN2006 at a final concentration of 5 nM) to activate NF-κB and AP-1 which induce the production of SEAP. After a 22 hour incubation at 37° C., 5% CO2, SEAP levels are determined with the addition of HEK-Blue™ Detection reagent (Invivogen), a cell culture medium that allows for detection of SEAP, according to manufacturer's specifications.
Method for human TLR8: TLR7/8/9 Inhibition Reporter Assays
as §1
Method for human TLR9: TLR7/8/9 Inhibition Reporter Assays
as §1

`Cc1c(-c2[nH]c3ccc(N4CCN(C(=O)CN(C)C)CC4)nc3c2C(C)C)cn2ncnc2c1C` [Example 3, 1-(4-(2-(7,8-dimethyl-[1,2,4]triazolo[1,5-a]pyridin-6-yl)-3-isopropyl-1H-pyrrolo[3,2-b]pyridin-5-yl)piperazin-1-yl)-2-(dimethylamino)ethan-1-one]: the “% inhibition of IFN-alpha” value at TLR7 (setting [1]) was found to be 29%; on TLR7 (setting [2]), 37%; at TLR7 (setting [3]), 94%; at TLR7 (setting [4]), 99%; on TLR7 (setting [5]), 100%. In addition, the “% inhibition of IL6” value on TLR7 (setting [1]) was found to be 0%; at TLR7 (setting [2]), 24%; at TLR7 (setting [3]), 75%; on TLR7 (setting [4]), 90%; at TLR7 (setting [5]), 91%.

As to `Cc1c(-c2[nH]c3ccc(C4CCC(NCC5(S(C)(=O)=O)CC5)CC4)nc3c2C(C)C)cn2ncnc2c1C` (stereo not drawn) [Example 4, 4-(2-(7,8-dimethyl-[1,2,4]triazolo[1,5-a]pyridin-6-yl)-3-isopropyl-1H-pyrrolo[3,2-b]pyridin-5-yl)-N-((1-(methylsulfonyl)cyclopropyl)methyl)cyclohexan-1-amine], the “% inhibition of IFN-alpha” value on TLR7 (setting [6]) was determined as 0%; on TLR7 (setting [7]), 33%; on TLR7 (setting [8]) it was 74%; on TLR7 (setting [9]) it was 93%; on TLR7 (setting [10]) it was 99%. The “% inhibition of IL6” value on TLR7 (setting [6]) was 0%; at TLR7 (setting [7]), 23%; at TLR7 (setting [8]) it was 75%; on TLR7 (setting [9]), 76%; on TLR7 (setting [10]), 95%.

On to `Cc1c(-c2[nH]c3ccc(C4CCC(N5CC6(C5)CS(=O)(=O)C6)CC4)nc3c2C(C)C)cn2ncnc2c1C` (stereo not drawn) [Example 438, 6-((1r,4r)-(4-(2-(7,8-dimethyl-[1,2,4]triazolo[1,5-a]pyridin-6-yl)-3-isopropyl-1H-pyrrolo[3,2-b]pyridin-5-yl)cyclohexyl)-2-thia-6-azaspiro[3.3]heptane 2,2-dioxide], for which the “% inhibition of IFN-alpha” value on TLR7 (setting [7]) was determined as 36%; on TLR7 (setting [11]), 57%; at TLR7 (setting [12]), 67%; at TLR7 (setting [10]), 96%; at TLR7 (setting [13]), 98%. The “% inhibition of IL6” value is given as 25% at TLR7 (setting [7]); 41% on TLR7 (setting [11]); 56% on TLR7 (setting [12]); 78% on TLR7 (setting [10]); 82% on TLR7 (setting [13]).

By IC50 is commonly meant the concentration that inhibits the measured activity by half. With `Cc1c(-c2[nH]c3ccc(N4C[C@H]5C[C@@H]4CN5C4CCOC4)nc3c2C(C)C)cn2ncnc2c1C` (stereo partly drawn) [Example 771], the IC50 came to 9.84 µM at human TLR9, 4.3 nM against human TLR7 and 9.2 nM at human TLR8.
